The values below come from paper PMC5830402, “Cell-based glycan arrays for probing glycan–glycan binding protein interactions” (Nature Communications, 2018).

The target in one assay is T1, ST3Gal4 (human α2-3ST) (Homo sapiens, UniProt Q11206).
T1 construct: recombinant glycosyltransferase
T1 sequence (Q11206 27-333 limits assumed): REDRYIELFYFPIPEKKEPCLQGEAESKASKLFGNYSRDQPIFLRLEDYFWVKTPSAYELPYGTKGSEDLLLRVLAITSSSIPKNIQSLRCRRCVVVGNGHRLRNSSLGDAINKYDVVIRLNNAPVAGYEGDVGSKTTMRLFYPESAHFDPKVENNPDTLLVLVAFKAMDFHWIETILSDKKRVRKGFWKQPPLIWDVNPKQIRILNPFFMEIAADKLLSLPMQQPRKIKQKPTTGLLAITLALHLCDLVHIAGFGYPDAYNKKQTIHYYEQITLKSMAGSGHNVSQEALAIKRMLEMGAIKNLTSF
Put plainly: transfer to Lec2 cell surface, ECL lectin flow cytometry; biotin-azide / streptavidin detection. Type of assay: cell-based. Conditions: added recombinant enzyme; acceptor N-glycan LacNAc on Lec2 CHO cells; 37 °C, 1 h. On the technique in general: Flow cytometry measures light scatter and fluorescence of single cells or particles in a stream.

Another assay concerns the target T2, ST6Gal1 (rat α2-6ST) (Rattus norvegicus, UniProt P13721).
T2 construct: recombinant glycosyltransferase
T2 sequence (P13721 27-403 limits assumed): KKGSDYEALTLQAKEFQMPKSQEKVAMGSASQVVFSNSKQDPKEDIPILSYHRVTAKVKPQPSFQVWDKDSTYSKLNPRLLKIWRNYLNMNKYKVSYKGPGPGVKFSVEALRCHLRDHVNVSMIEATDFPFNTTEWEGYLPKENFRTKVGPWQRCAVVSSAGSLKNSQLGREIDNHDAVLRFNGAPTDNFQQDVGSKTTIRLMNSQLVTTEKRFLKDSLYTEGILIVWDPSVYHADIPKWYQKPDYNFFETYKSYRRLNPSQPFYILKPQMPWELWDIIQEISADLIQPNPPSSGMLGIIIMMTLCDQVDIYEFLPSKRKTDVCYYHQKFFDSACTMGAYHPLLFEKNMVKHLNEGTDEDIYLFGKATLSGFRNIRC
The description is as above. Type of assay: cell-based. Conditions: added recombinant enzyme; acceptor N-glycan LacNAc on Lec2 CHO cells; 37 °C, 1 h.

As to `C#CCOC(=O)N[C@H]1[C@H]([C@H](O)[C@H](O)CO)O[C@](OP(=O)(O)OC[C@H]2O[C@@H](n3ccc(N)nc3=O)[C@H](O)[C@@H]2O)(C(=O)O)C[C@@H]1O` [compound 7, CMP-SiaPoc], the “transfer to Lec2 cell surface, ECL lectin flow cytometry; biotin-azide / strepta” value was “Upon sialylation by ST3Gal4 and ST6Gal1, Lec2 CHO cells showed a reduction in ECL binding” at ST3Gal4 (human α2-3ST); “Upon sialylation by ST3Gal4 and ST6Gal1, Lec2 CHO cells showed a reduction in ECL binding” on ST6Gal1 (rat α2-6ST).
